pEC50: −log10 of the molar value.
Experiments:
[1] = tested on: HCV genotype 1b (Con1) replicon in HUH-7 cells; assay: HCV replicon luciferase reporter assay, genotype 1b; assay type: cell-based; settings: Hepatitis C virus, 72 h, HCV genotype 1b replicon luciferase, 3 days incubation, class symbols, read-out: LE_1b (EC50, range)
Text: An HCV replicon whole cell system was established as described by Lohmann V, Korner F, Koch J, Herian U, Theilmann L, Bartenschlager R., Science 285(5424):110-3 (1999) and modified to introduce a luciferase reporter, as first described by Krieger et al (Krieger N, Lohmann V, and Bartenschlager R, J. Virol. 75(10):4614-4624 (2001)). CDNA encoding a humanized form of the Renilla luciferase gene and a linker sequence fused directly to the 3′-end of the luciferase gene were introduced into the replicon construct using an Asc1 restriction site located in core, directly upstream of the neomycin marker gene. The adaptive mutation at position 1179 (serine to isoleucine) was also introduced (Blight K J, Kolykhalov, A A, Rice, C M, Science 290(5498):1972-1974). A stable cell line constitutively expressing this HCV replicon construct was generated by first linearizing plasmid DNAs with ScaI. RNA transcripts were synthesized in vitro using the T7 MegaScript transcription kit (Ambion, Austin, Tex.) according to manufacturer's directions. In vitro transcripts of the cDNA were transfected into the human hepatoma cell line, HUH-7. […] Resulting cell lines were characterized for positive and negative strand RNA production and protein production over time. […]
(§1) HCV replicon luciferase assays were developed to monitor the inhibitory effects of compounds described in the disclosure on HCV genotypes 1a and 1b viral replication. HUH-7 cells, constitutively expressing the HCV replicon, were grown in Dulbecco's Modified Eagle Media (DMEM) (Gibco-BRL) containing 10% Fetal calf serum (FCS) (Sigma) and 1 mg/mL G418 (Gibco-BRL). Compounds were serially diluted 3 folds in DMSO for a twenty-point titration and subsequently transferred to sterile 384-well tissue-culture treated plates (Corning cat #3571). The plates were then seeded with 50 μL of cells at a density of 3.0×10^3 cells/well in DMEM containing 4% FCS (final DMSO concentration at 0.5%). After 3 days incubation at 37° C., cells were analyzed for Renilla Luciferase activity using the EnduRen as substrate (Promega cat #E6485). The EnduRen substrate was diluted in DMEM and then added to the plates to a final concentration of 7.5 μM. The plates were incubated for 2 hrs at 37° C. and then read immediately for 30 seconds with Viewlux Imager (PerkinElmer) using a luminescence program. To assess cytotoxicity of compounds, CC50 values were generated by multiplexing the EnduRen-containing plates with Cell Titer-Blue (Promega, cat # G8082). Cell-Titer Blue (3 μL) was added to each well and incubated for 8 hrs at 37° C. The fluorescence signal from each well was read, with an excitation wavelength at 525/10 nm and an emission wavelength of 598/10 nm, using the Viewlux Imager.
(§2) The EC50 values for compounds were calculated by using a four-parameter logistic equation: y=A+((B−A)/(1+((C/x)^D))), where A and B denotes minimal and maximal % inhibition, respectively, C is the EC50, D is the hill slope and x represents compound concentration.

[2] = tested on: HCV genotype 1a (H77 strain) replicon in HUH-7 cells; assay: HCV replicon luciferase reporter assay, genotype 1a; assay type: cell-based; settings: Hepatitis C virus, Huh-7, 72 h, HCV genotype 1a replicon luciferase, 3 days incubation, class symbols, read-out: LE_1a (EC50, range)
Text: An HCV replicon whole cell system was established as described by Lohmann V, Korner F, Koch J, Herian U, Theilmann L, Bartenschlager R., Science 285(5424):110-3 (1999) and modified to introduce a luciferase reporter, as first described by Krieger et al (Krieger N, Lohmann V, and Bartenschlager R, J. Virol. 75(10):4614-4624 (2001)). CDNA encoding a humanized form of the Renilla luciferase gene and a linker sequence fused directly to the 3′-end of the luciferase gene were introduced into the replicon construct using an Asc1 restriction site located in core, directly upstream of the neomycin marker gene. The adaptive mutation at position 1179 (serine to isoleucine) was also introduced (Blight K J, Kolykhalov, A A, Rice, C M, Science 290(5498):1972-1974). A stable cell line constitutively expressing this HCV replicon construct was generated by first linearizing plasmid DNAs with ScaI. RNA transcripts were synthesized in vitro using the T7 MegaScript transcription kit (Ambion, Austin, Tex.) according to manufacturer's directions. In vitro transcripts of the cDNA were transfected into the human hepatoma cell line, HUH-7. […] Resulting cell lines were characterized for positive and negative strand RNA production and protein production over time.
A stable HCV replicon luciferase reporter cell line representing the genotype 1a H77 strain (Yanagi M, Purcell R H, Emerson S U, et al. Transcripts from a single full-length cDNA clone of hepatitis C virus are infectious when directly transfected into the liver of a chimpanzee. Proc Natl Acad Sci USA 1997; 94(16):8738-8743) was generated as described previously for the genotype 1b (Con1) replicon luciferase cell line. The replicon construct was modified by introducing mutations were introduced into the genes encoding the NS3 helicase domain (proline replaced by leucine at position 1496) and NS5A (serine to isoleucine at position 2204) to improve replication in cell culture.
as §1, §2

| SMILES | pEC50 [1] | pEC50 [2] |
| --- | --- | --- |
| CC[C@@H]1C[C@H](C)CC/C=C\[C@@H]2C[C@@]2(C(=O)NS(=O)(=O)C2CC2)NC(=O)[C@@H]2C[C@@H](Oc3ncc(OC)c4ccc(F)cc34)CN2C(=O)[C@H]1NC(=O)OC(C)(C)C [Compound 4001, tert-butyl tert-butyl (2R,6S,7R,9R,13aS,14aR,16aS,Z)-14a-(cyclopropylsulfonylcarbamoyl)-7-ethyl-2-(7-fluoro-4-methoxyisoquinolin-1-yloxy)-9-methyl-5,16-dioxo-1,2,3,5,6,7,8,9,10,11,13a,14,14a,15,16,16a-hexadecahydrocyclopropa[e]pyrrolo[1,2-a][1,4]diazacyclopentadecin-6-ylcarbamate] | > 8.26 | > 8.26 |
| CC[C@@H]1C[C@H](C)CC/C=C\[C@@H]2C[C@@]2(C(=O)NS(=O)(=O)C2CC2)NC(=O)[C@@H]2C[C@@H](Oc3ncc(OC)c4ccccc34)CN2C(=O)[C@H]1NC(=O)OC(C)(C)C [Compound 4007, tert-butyl (2R,6S,7R,9R,13aS,14aR,16aS,Z)-14a-(cyclopropylsulfonylcarbamoyl)-7-ethyl-2-(4-methoxyisoquinolin-1-yloxy)-9-methyl-5,16-dioxo-1,2,3,5,6,7,8,9,10,11,13a,14,14a,15,16,16a-hexadecahydrocyclopropa[e]pyrrolo[1,2-a][1,4]diazacyclopentadecin-6-ylcarbamate] | > 8.26 | > 8.26 |
| CC[C@@H]1C[C@H](C)CC/C=C\[C@@H]2C[C@@]2(C(=O)NS(=O)(=O)C2CC2)NC(=O)[C@@H]2C[C@@H](Oc3ncc(OC)c4ccccc34)CN2C(=O)[C@H]1NC(=O)OC(C)(C)C(F)(F)F [Compound 4008, 1,1,1-trifluoro-2-methylpropan-2-yl (2R,6S,7R,9R,13aS,14aR,16aS,Z)-14a-(cyclopropylsulfonylcarbamoyl)-7-ethyl-2-(4-methoxyisoquinolin-1-yloxy)-9-methyl-5,16-dioxo-1,2,3,5,6,7,8,9,10,11,13a,14,14a,15,16,16a-hexadecahydrocyclopropa[e]pyrrolo[1,2-a][1,4]diazacyclopentadecin-6-ylcarbamate] | > 8.26 | > 8.26 |
| COc1ccc2c(O[C@@H]3CC4C(=O)N[C@]5(C(=O)NS(=O)(=O)C6(F)CC6)C[C@H]5/C=C\CC[C@@H](C)C[C@@H](C)[C@H](NC(=O)C(C)(C)C)C(=O)N4C3)nccc2c1 (some centres unmarked) [Compound 4015] | > 8.26 | > 8.26 |
| C[C@@H]1CC/C=C\[C@@H]2C[C@@]2(C(=O)NS(=O)(=O)C2CC2)NC(=O)[C@@H]2C[C@@H](Oc3ncc(OCC4CC4)c4ccccc34)CN2C(=O)[C@@H](NC(=O)OC(C)(C)C(F)(F)F)[C@H](C)C1 [Compound 4030, 1,1,1-trifluoro-2-methylpropan-2-yl (2R,6S,7R,9R,13aS,14aR,16aS,Z)-2-(4-(cyclopropylmethoxy)isoquinolin-1-yloxy)-14a-(cyclopropylsulfonylcarbamoyl)-7,9-dimethyl-5,16-dioxo-1,2,3,5,6,7,8,9,10,11,13a,14,14a,15,16,16a-hexadecahydrocyclopropa[e]pyrrolo[1,2-a][1,4]diazacyclopentadecin-6-ylcarbamate] | > 8.26 | > 8.26 |
| C[C@@H]1CC/C=C\[C@@H]2C[C@@]2(C(=O)NS(=O)(=O)C2CC2)NC(=O)[C@@H]2C[C@@H](Oc3ncc(OC(F)F)c4c(Cl)cccc34)CN2C(=O)[C@@H](NC(=O)OC(C)(C)C(F)(F)F)[C@H](C)C1 [Compound 4031, 1,1,1-trifluoro-2-methylpropan-2-yl (2R,6S,7R,9R,13aS,14aR,16aS,Z)-2-(5-chloro-4-(difluoromethoxy)isoquinolin-1-yloxy)-14a-(cyclopropylsulfonylcarbamoyl)-7,9-dimethyl-5,16-dioxo-1,2,3,5,6,7,8,9,10,11,13a,14,14a,15,16,16a-hexadecahydrocyclopropa[e]pyrrolo[1,2-a][1,4]diazacyclopentadecin-6-ylcarbamate] | > 8.26 | > 8.26 |
| COc1cnc(O[C@@H]2C[C@H]3C(=O)N[C@]4(C(=O)NS(=O)(=O)C5(C)CC5)C[C@H]4/C=C\CC[C@H](C)C[C@@H](C)[C@H](NC(=O)OC(C)(C)C)C(=O)N3C2)c2ccccc12 [Compound 4058, tert-butyl (2R,6S,7R,9S,13aS,14aR,16aS,Z)-2-(4-methoxyisoquinolin-1-yloxy)-7,9-dimethyl-14a-(1-methylcyclopropylsulfonylcarbamoyl)-5,16-dioxo-1,2,3,5,6,7,8,9,10,11,13a,14,14a,15,16,16a-hexadecahydrocyclopropa[e]pyrrolo[1,2-a][1,4]diazacyclopentadecin-6-ylcarbamate] | > 8.26 | > 8.26 |
| C[C@@H]1CC/C=C\[C@@H]2C[C@@]2(C(=O)NS(=O)(=O)C2CC2)NC(=O)[C@@H]2C[C@@H](Oc3nccc4ccc(F)cc34)CN2C(=O)[C@@H](NC(=O)OC(C)(C)C(F)(F)F)[C@H](C)C1 [Compound 4072, 1,1,1-trifluoro-2-methylpropan-2-yl (2R,6S,7R,9R,13aS,14aR,16aS,Z)-14a-(cyclopropylsulfonylcarbamoyl)-2-(7-fluoroisoquinolin-1-yloxy)-7,9-dimethyl-5,16-dioxo-1,2,3,5,6,7,8,9,10,11,13a,14,14a,15,16,16a-hexadecahydrocyclopropa[e]pyrrolo[1,2-a][1,4]diazacyclopentadecin-6-ylcarbamate] | > 8.26 | > 8.26 |
| COc1ccc2c(O[C@@H]3C[C@H]4C(=O)N[C@]5(C(=O)NS(=O)(=O)C6(C)CC6)C[C@H]5/C=C\CC[C@@H](C)C[C@@H](C)[C@H](NC(=O)OC(C)(C)C)C(=O)N4C3)ncc(N3CCN(S(C)(=O)=O)CC3)c2c1 [Compound 4121, tert-butyl (2R,6S,7R,9R,13aS,14aR,16aS,Z)-2-(6-methoxy-4-(4-(methylsulfonyl)piperazin-1-yl)isoquinolin-1-yloxy)-7,9-dimethyl-14a-(1-methylcyclopropylsulfonylcarbamoyl)-5,16-dioxo-1,2,3,5,6,7,8,9,10,11,13a,14,14a,15,16,16a-hexadecahydrocyclopropa[e]pyrrolo[1,2-a][1,4]diazacyclopentadecin-6-ylcarbamate] | > 8.26 | > 8.26 |
| CC[C@@H]1C[C@H](C)CC/C=C\[C@@H]2C[C@@]2(C(=O)NS(=O)(=O)C2(C)CC2)NC(=O)[C@@H]2C[C@@H](Oc3ncc(OC)c4ccccc34)CN2C(=O)[C@H]1NC(=O)OC(C)(C)C(F)(F)F [Compound 4174, 1,1,1-trifluoro-2-methylpropan-2-yl (2R,6S,7R,9R,13aS,14aR,16aS,Z)-7-ethyl-2-(4-methoxyisoquinolin-1-yloxy)-9-methyl-14a-(1-methylcyclopropylsulfonylcarbamoyl)-5,16-dioxo-1,2,3,5,6,7,8,9,10,11,13a,14,14a,15,16,16a-hexadecahydrocyclopropa[e]pyrrolo[1,2-a][1,4]diazacyclopentadecin-6-ylcarbamate] | > 8.26 | > 8.26 |

Reference: patent US9527885B2, “Hepatitis C virus inhibitors” (BRISTOL-MYERS SQUIBB COMPANY, priority 2011, dated 2016)
